Biological target: T1, TAFIa (Homo sapiens, UniProt Q96IY4)
T1 sequence (Q96IY4 115-423): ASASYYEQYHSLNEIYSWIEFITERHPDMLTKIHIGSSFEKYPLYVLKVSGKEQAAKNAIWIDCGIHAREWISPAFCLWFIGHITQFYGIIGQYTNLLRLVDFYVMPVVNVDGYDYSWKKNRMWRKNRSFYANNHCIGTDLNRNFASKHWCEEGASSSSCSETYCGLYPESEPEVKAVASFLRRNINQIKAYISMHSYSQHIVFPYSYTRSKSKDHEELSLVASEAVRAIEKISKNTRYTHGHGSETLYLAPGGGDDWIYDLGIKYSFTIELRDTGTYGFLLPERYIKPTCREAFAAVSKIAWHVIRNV
Assay: Inhibition of TAFIa (hippuryl-Arg test)
Assay type: biochemical
Conditions: TAFIa 2 nM, hippuryl-arginine 5 mM, 45 minutes, relative to control containing the carrier; for inhibition at 0.01 µM: compound at 10 nM; for inhibition at 0.02 µM: compound at 20 nM
Protocol: Human TAFI (4 nM) is incubated with human thrombin (10 nM) and human thrombomodulin (5 nM) in the presence of calcium (10 mM). After incubation for 20 minutes, the activation reaction is stopped by addition of PPACK (1 μM final), an irreversible thrombin inhibitor.
The reactions take place in Hepes buffer (25 mM Hepes, 137 mM NaCl, 3.5 mM KCl)+0.1% bovine albumin, pH 7.4 at 28° C. and with stirring.
The test compound is added to the solution of TAFIa (2 nM) and incubated for 45 minutes in the presence of hippuryl-arginine (5 mM). The reaction is stopped by addition of hydrochloric acid (1M) neutralised subsequently with sodium hydroxide (1M), and then the mixture is buffered with disodium hydroxyphosphate (1M pH 7.4). […] The reaction mixture is stirred (vortex) and then centrifuged. The supernatant is transferred to a 96-well microplate, and the absorbance is measured using a spectrophotometer at 405 nm (Spectramax plus, Molecular Devices).
The OD value of a well containing the reagents without TAFI is subtracted from all the OD values measured. The percentage inhibition of TAFIa at a given concentration of the test compound is determined by means of the following formula: % inhibition=100−[(OD compound×100)/OD carrier]
The compounds are evaluated at 10 nM and 20 nM under the experimental conditions described above and the results are expressed as the percentage inhibition relative to a control containing the carrier in the absence of compound.

| Compound | inhibition at 0.01 µM | inhibition at 0.02 µM |
| --- | --- | --- |
| NCCCC[C@@]1(C(=O)O)CN(Cc2ccc(O)cc2-c2ccccc2)CCP1(=O)O [Example 191, (3S)-3-(4-AMINOBUTYL)-4-HYDROXY-1-[(4-HYDROXY-2-PHENYLPHENYL)-METHYL]-4-OXO-1,4-AZAPHOSPHINANE-3-CARBOXYLIC ACID] | 66% | 83% |
| NCCCC[C@@]1(C(=O)O)CN(Cc2ccc(F)cc2-c2ccncc2)CCP1(=O)O [Example 192, (3S)-3-(4-AMINOBUTYL)-1-[(4-FLUORO-2-PYRIDIN-4-YLPHENYL)METHYL]-4-HYDROXY-4-OXO-1,4-AZAPHOSPHINANE-3-CARBOXYLIC ACID] | 77% | 91% |
| NCCCC[C@@]1(C(=O)O)CN(Cc2ccccc2-c2cccc(Cl)c2)CCP1(=O)O [Example 194, (3S)-3-(4-AMINOBUTYL)-1-[[2-(3-CHLOROPHENYL)PHENYL]METHYL]-4-HYDROXY-4-OXO-1,4-AZAPHOSPHINANE-3-CARBOXYLIC ACID] | 64% | 80% |
| NCCCC[C@@]1(C(=O)O)CN(Cc2ccc(Cl)cc2-c2ccc(Cl)cc2)CCP1(=O)O [Example 195, (3S)-3-(4-AMINOBUTYL)-1-[[4-CHLORO-2-(4-CHLOROPHENYL)PHENYL]METHYL]-4-HYDROXY-4-OXO-1,4-AZAPHOSPHINANE-3-CARBOXYLIC ACID] | 74% | 87% |
| COc1ccc(-c2ccccc2CN2CCP(=O)(O)[C@](CCCCN)(C(=O)O)C2)cn1 [Example 196, (3S)-3-(4-AMINOBUTYL)-4-HYDROXY-1-[2-(6-METHOXYPYRIDIN-3-YL)BENZYL]-4-OXO-1,4-AZAPHOSPHINANE-3-CARBOXYLIC ACID] | 77% | 91% |
| NCCCC[C@@]1(C(=O)O)CN(Cc2ccccc2-c2ccc(F)cc2)CCP1(=O)O [Example 197, (3S)-3-(4-AMINOBUTYL)-1-[[2-(4-FLUOROPHENYL)PHENYL]METHYL]-4-HYDROXY-4-OXO-1,4-AZAPHOSPHINANE-3-CARBOXYLIC ACID] | 60% | 78% |
| NCCCC[C@@]1(C(=O)O)CN(Cc2ccc(F)cc2-c2ccc(Cl)cc2)CCP1(=O)O [Example 198, (3S)-3-(4-AMINOBUTYL)-1-[[2-(4-CHLOROPHENYL)-4-FLUOROPHENYL]METHYL]-4-HYDROXY-4-OXO-1,4-AZAPHOSPHINANE-3-CARBOXYLIC ACID] | 72% | 91% |
| NCCCC[C@@]1(C(=O)O)CN(Cc2ccccc2-c2cccc3ccccc23)CCP1(=O)O [Example 199, (3S)-3-(4-AMINOBUTYL)-4-HYDROXY-1-[(2-NAPHTHALEN-1-YLPHENYL)-METHYL]-4-OXO-1,4-AZAPHOSPHINANE-3-CARBOXYLIC ACID] | 54% | 73% |
| CC(C)(C)c1ccccc1CN1CCP(=O)(O)[C@](CCCCN)(C(=O)O)C1 [Example 200, (3S)-3-(4-AMINOBUTYL)-1-[(2-TERT-BUTYLPHENYL)METHYL]-4-HYDROXY-4-OXO-1,4-AZAPHOSPHINANE-3-CARBOXYLIC ACID] | 28% | 46% |
| COc1cc(-c2cc(F)ccc2CN2CCP(=O)(O)[C@](CCCCN)(C(=O)O)C2)ccc1F [Example 201, (3S)-3-(4-AMINOBUTYL)-1-[[4-FLUORO-2-(4-FLUORO-3-METHOXYPHENYL)-PHENYL]METHYL]-4-HYDROXY-4-OXO-1,4-AZAPHOSPHINANE-3-CARBOXYLIC ACID] | 69% | 84% |
| NCCCC[C@@]1(C(=O)O)CN(Cc2ccccc2-c2cncc3ccccc23)CCP1(=O)O [Example 202, (3S)-3-(4-AMINOBUTYL)-4-HYDROXY-1-[(2-ISOQUINOLIN-4-YLPHENYL)-METHYL]-4-OXO-1,4-AZAPHOSPHINANE-3-CARBOXYLIC ACID] | 74% | 87% |
| COc1cc(-c2ccccc2CN2CCP(=O)(O)[C@](CCCCN)(C(=O)O)C2)ccn1 [Example 203, (3S)-3-(4-AMINOBUTYL)-4-HYDROXY-1-[[2-(2-METHOXYPYRIDIN-4-YL)PHENYL]METHYL]-4-OXO-1,4-AZAPHOSPHINANE-3-CARBOXYLIC ACID] | 75% | 89% |
| NCCCC[C@@]1(C(=O)O)CN(Cc2ccccc2-c2cc[nH]c(=O)c2)CCP1(=O)O [Example 204, (3S)-3-(4-AMINOBUTYL)-4-HYDROXY-4-OXO-1-[[2-(2-OXO-1H-PYRIDIN-4-YL)PHENYL]METHYL]-1,4-AZAPHOSPHINANE-3-CARBOXYLIC ACID] | 70% | 86% |
| NCCCC[C@@]1(C(=O)O)CN(Cc2ccc(F)cc2-c2ccccc2Cl)CCP1(=O)O [Example 206, (3S)-3-(4-AMINOBUTYL)-1-[[2-(2-CHLOROPHENYL)-4-FLUOROPHENYL]METHYL]-4-HYDROXY-4-OXO-1,4-AZAPHOSPHINANE-3-CARBOXYLIC ACID] | 67% | 80% |
| COc1cccc(-c2ccccc2CN2CCP(=O)(O)[C@](CCCCN)(C(=O)O)C2)c1OC [Example 207, (3S)-3-(4-AMINOBUTYL)-1-[[2-(2,3-DIMETHOXYPHENYL)PHENYL]METHYL]-4-HYDROXY-4-OXO-1,4-AZAPHOSPHINANE-3-CARBOXYLIC ACID] | 71% | 85% |
| CS(=O)(=O)c1ccccc1-c1ccccc1CN1CCP(=O)(O)[C@](CCCCN)(C(=O)O)C1 [Example 208, (3S)-3-(4-AMINOBUTYL)-4-HYDROXY-1-[[2-(2-METHYLSULPHONYLPHENYL)-PHENYL]METHYL]-4-OXO-1,4-AZAPHOSPHINANE-3-CARBOXYLIC ACID] | 35% | 46% |
| NCCCC[C@@]1(C(=O)O)CN(Cc2ccccc2-c2ccc3ccccc3c2)CCP1(=O)O [Example 209, (3S)-3-(4-AMINOBUTYL)-4-HYDROXY-1-[(2-NAPHTHALEN-2-YLPHENYL)-METHYL]-4-OXO-1,4-AZAPHOSPHINANE-3-CARBOXYLIC ACID] | 76% | 87% |
| NCCCC[C@@]1(C(=O)O)CN(Cc2ccc(Cl)cc2-c2ccc(F)cc2)CCP1(=O)O [Example 210, (3S)-3-(4-AMINOBUTYL)-1-[[4-CHLORO-2-(4-FLUOROPHENYL)PHENYL]METHYL]-4-HYDROXY-4-OXO-1,4-AZAPHOSPHINANE-3-CARBOXYLIC ACID] | 71% | 79% |
| NCCCC[C@@]1(C(=O)O)CN(Cc2ccc(F)cc2-c2ccc(O)cc2)CCP1(=O)O [Example 211, (3S)-3-(4-AMINOBUTYL)-1-[[4-FLUORO-2-(4-HYDROXYPHENYL)PHENYL]-METHYL]-4-HYDROXY-4-OXO-1,4-AZAPHOSPHINANE-3-CARBOXYLIC ACID] | 85% | 95% |
| Cn1cc(-c2cc(F)ccc2CN2CCP(=O)(O)[C@](CCCCN)(C(=O)O)C2)cn1 [Example 212, (3S)-3-(4-AMINOBUTYL)-1-[4-FLUORO-2-(1-METHYL-1H-PYRAZOL-4-YL)BENZYL]-4-HYDROXY-4-OXO-1,4-AZAPHOSPHINANE-3-CARBOXYLIC ACID] | 62% | 86% |
| NCCCC[C@@]1(C(=O)O)CN(Cc2ccc(F)cc2-c2cccs2)CCP1(=O)O [Example 213, (3S)-3-(4-AMINOBUTYL)-1-[(4-FLUORO-2-THIOPHEN-2-YLPHENYL)METHYL]-4-HYDROXY-4-OXO-1,4-AZAPHOSPHINANE-3-CARBOXYLIC ACID] | 83% | 92% |
| NCCCC[C@@]1(C(=O)O)CN(Cc2ccccc2-c2cccc3cnccc23)CCP1(=O)O [Example 214, (3S)-3-(4-AMINOBUTYL)-4-HYDROXY-1-[(2-ISOQUINOLIN-5-YLPHENYL)-METHYL]-4-OXO-1,4-AZAPHOSPHINANE-3-CARBOXYLIC ACID] | 79% | 91% |
| NCCCC[C@@]1(C(=O)O)CN(Cc2ccc(F)cc2-c2ccc3ccccc3c2)CCP1(=O)O [Example 215, (3S)-3-(4-AMINOBUTYL)-1-[(4-FLUORO-2-NAPHTHALEN-2-YLPHENYL)METHYL]-4-HYDROXY-4-OXO-1,4-AZAPHOSPHINANE-3-CARBOXYLIC ACID] | 82% | 91% |
| NCCCC[C@@]1(C(=O)O)CN(Cc2ccc(F)cc2-c2cc3ccccc3s2)CCP1(=O)O [Example 216, (3S)-3-(4-AMINOBUTYL)-1-[[2-(1-BENZOTHIOPHEN-2-YL)-4-FLUOROPHENYL]-METHYL]-4-HYDROXY-4-OXO-1,4-AZAPHOSPHINANE-3-CARBOXYLIC ACID] | 71% | 85% |
| Cn1cncc1-c1cc(F)ccc1CN1CCP(=O)(O)[C@](CCCCN)(C(=O)O)C1 [Example 217, (3S)-3-(4-AMINOBUTYL)-1-[4-FLUORO-2-(1-METHYL-1H-IMIDAZOL-5-YL)BENZYL]-4-HYDROXY-4-OXO-1,4-AZAPHOSPHINANE-3-CARBOXYLIC ACID] | 66% | 83% |
